This data set can be described thus: Stability against photobleaching of free CANIR and NIR fluorescent nanoparticles. The conditions noted are these: illuminated continuously with a Xenon flash lamp for 20 minutes; λex 800 nm, λem 830 nm; intensity normalized. It counts as physicochemical. The method, then: Photobleaching is the irreversible light-induced destruction of the fluorophore, affected by factors such as oxygen, oxidizing or reducing agents, temperature, exposure time and illumination levels. For photobleaching experiments, the samples were diluted to 0.05M and λex was set at 800 nm and λem at 830 nm. Each of the samples was illuminated continuously, and fluorescence intensity was measured over a period of 20 minutes. The intensity values were normalized.
Photobleaching experiments were performed for the free CANIR dye and the CANIR-HSA nanoparticles, in order to examine their photostabillity. For the photobleaching experiments, the samples were diluted to 0.05M and λex was set at 800 nm and λem at 830 nm. Each of the samples was illuminated continuously, and fluorescence intensity was measured over a period of 20 minutes. Intensity values were normalized. […] The encapsulation of the dye probably protects the dye against reactive oxygen species thereby reducing the photobleaching.
FIG. 2 depicts the photostability of the CANIR-HSA nanoparticles (A) and free CANIR (B) as a function of time. Samples of CANIR containing HSA nanoparticles and free CANIR were illuminated with a Xenon flash lamp for 20 minutes as described above.

In the case of `CC1(C)C(=CC=C2CCCC(C=CC3=[N+](CCCCS(=O)(=O)[O-])c4ccccc4C3(C)C)=C2Sc2ccc(C(=O)O)cc2)N(CCCCS(=O)(=O)[O-])c2ccccc21.[Na+]` [free CANIR], the “fluorescence intensity during illumination (photostability)” value is “decreases significantly”.

For the origin of these results see US20130030282A1, “SYNTHESIS AND CHARACTERIZATION OF NEAR IR FLUORESCENT MAGNETIC AND NON-MAGNETIC ALBUMIN NANOPARTICLES FOR BIOMEDICAL APPLICATIONS” (BAR ILAN UNIVERSITY, priority 2011, published 2013).
